Tests used:
[1] = molecular target: T1, human SGLT2 (Homo sapiens, UniProt P31639); assay: Inhibition test of sodium-dependent sugar uptake in CHO-k1 cells stably expressing human SGLT2; format: cell-based; settings: for IC50: CHO-k1 cells expressing human SGLT2, [14C]methyl α-D-glucopyranoside uptake, 37° C., an hour; for SGLT2 % inhibition at 100 nM: sugar uptake inhibition rate at 100 nM test compound vs control group
T1 construct: expressed in transfected cells; host or cells: CHO-k1
T1 sequence (P31639 1-672): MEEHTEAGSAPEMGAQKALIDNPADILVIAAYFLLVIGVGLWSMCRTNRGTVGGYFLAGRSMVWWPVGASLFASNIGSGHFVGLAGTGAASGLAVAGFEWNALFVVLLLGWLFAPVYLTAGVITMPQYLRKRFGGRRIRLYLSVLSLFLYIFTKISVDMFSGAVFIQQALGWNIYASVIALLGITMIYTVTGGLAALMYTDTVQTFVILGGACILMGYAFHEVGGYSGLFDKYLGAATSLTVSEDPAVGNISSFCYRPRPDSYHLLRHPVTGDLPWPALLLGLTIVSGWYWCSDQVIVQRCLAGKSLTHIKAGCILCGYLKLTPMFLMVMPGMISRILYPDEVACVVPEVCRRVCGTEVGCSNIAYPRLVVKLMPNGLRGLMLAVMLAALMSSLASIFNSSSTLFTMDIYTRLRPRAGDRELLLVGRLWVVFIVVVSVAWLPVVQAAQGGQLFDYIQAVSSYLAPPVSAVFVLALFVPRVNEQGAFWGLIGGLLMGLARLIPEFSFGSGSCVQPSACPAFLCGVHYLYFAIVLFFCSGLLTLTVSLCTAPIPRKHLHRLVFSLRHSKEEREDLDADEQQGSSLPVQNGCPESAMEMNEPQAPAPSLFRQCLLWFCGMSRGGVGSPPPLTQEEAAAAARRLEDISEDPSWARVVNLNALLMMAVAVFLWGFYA
Protocol: (§1) An SGLT1 sequence (NM_000343) was reverse-transcripted from human small intestinal mRNA, then amplified, and then introduced into pCMV-tag5A from Stratagene Corporation. An SGLT2 sequence (NM_003041) was prepared from human nephric mRNA as with the above method, and then introduced into pcDNA3.1+hygro from Invitrogen Corporation. Each cloned sequence was confirmed to be identical with the reported sequence.
(§2) The human SGLT1 and human SGLT2 expression vectors were transfected into CHO-k1 cells by using Lipofectamine 2000 from Invitrogen Corporation. The SGLT expression cells were incubated in the presence of Geneticin (SGLT1) or Hygromycin B (SGLT2) at a 500 μg/mL concentration to select resistant strains, and specific activity of sugar uptake was obtained as an indicator by the following system.
(§3) Cells stably expressing human SGLT1 and human SGLT2 were used for the inhibition test of sodium-dependent glucose uptake.
(§4) The cells were incubated in a pretreatment buffer A (200 μL for SGLT1, and 2 mL for SGLT2) for 20 minutes. The pretreatment buffer was removed and an uptake buffer B (75 μL for SGLT1, and 200 μL for SGLT2) containing a test compound was added to conduct an uptake reaction at 37° C. for 30 minutes (SGLT1) or an hour (SGLT2). After the reaction, the cells were washed with a washing buffer C twice (200 μL for SGLT1, and 2 mL for SGLT2), and then dissolved in a 0.2 M solution of NaOH (75 μL for SGLT1, and 400 μL for SGLT2). After a liquid scintilater was added thereto and mixed sufficiently, radioactivity was measured with microBETA (SGLT1) or a liquid scintillation counter from Beckman Coulter, Inc (SGLT2). As a control group, an uptake buffer containing no test compound was prepared. In addition, as the basic uptake buffer, an uptake buffer B containing choline chloride instead of NaCl was prepared. • A pretreatment buffer A: 140 mM choline chloride, 2 mM KCl, 1 mM CaCl2, 1 mM MgCl2, 10 mM HEPES/5 mM Tris, pH 7.4. • An uptake buffer B: 1 mM of methyl α-D-glucopyranoside containing [^14C]methyl α-D-glucopyranoside, 140 mM NaCl, 2 mM KCl, 1 mM CaCl2, 1 mM MgCl2, 10 mM HEPES/5 mM Tris, pH 7.4. • A washing buffer C: 10 mM methyl α-D-glucopyranoside, 140 mM choline chloride, 2 mM KCl, 1 mM CaCl2, 1 mM MgCl2, 10 mM HEPES/5 mM Tris, pH 7.4.
(§5) In order to obtain IC50 values, test compounds having adequate 6 concentrations were used and the test compound concentrations (IC50 values) at which sugar uptake is inhibited by 50% in comparison with the amount of sugar uptake (100%) of the control group were calculated.
(§6) In addition, the sugar uptake inhibition rates at 100 nM concentration of the test compound in comparison with the control group are shown in Table 7.

[2] = molecular target: T2, human SGLT1 (Homo sapiens, UniProt P13866); assay: Inhibition test of sodium-dependent sugar uptake in CHO-k1 cells stably expressing human SGLT1; format: cell-based; settings: for IC50: CHO-k1 cells expressing human SGLT1, [14C]methyl α-D-glucopyranoside uptake, 37° C., 30 minutes; for SGLT1 % inhibition at 100 nM: sugar uptake inhibition rate at 100 nM test compound vs control group
T2 construct: expressed in transfected cells; host or cells: CHO-k1
T2 sequence (P13866 1-664): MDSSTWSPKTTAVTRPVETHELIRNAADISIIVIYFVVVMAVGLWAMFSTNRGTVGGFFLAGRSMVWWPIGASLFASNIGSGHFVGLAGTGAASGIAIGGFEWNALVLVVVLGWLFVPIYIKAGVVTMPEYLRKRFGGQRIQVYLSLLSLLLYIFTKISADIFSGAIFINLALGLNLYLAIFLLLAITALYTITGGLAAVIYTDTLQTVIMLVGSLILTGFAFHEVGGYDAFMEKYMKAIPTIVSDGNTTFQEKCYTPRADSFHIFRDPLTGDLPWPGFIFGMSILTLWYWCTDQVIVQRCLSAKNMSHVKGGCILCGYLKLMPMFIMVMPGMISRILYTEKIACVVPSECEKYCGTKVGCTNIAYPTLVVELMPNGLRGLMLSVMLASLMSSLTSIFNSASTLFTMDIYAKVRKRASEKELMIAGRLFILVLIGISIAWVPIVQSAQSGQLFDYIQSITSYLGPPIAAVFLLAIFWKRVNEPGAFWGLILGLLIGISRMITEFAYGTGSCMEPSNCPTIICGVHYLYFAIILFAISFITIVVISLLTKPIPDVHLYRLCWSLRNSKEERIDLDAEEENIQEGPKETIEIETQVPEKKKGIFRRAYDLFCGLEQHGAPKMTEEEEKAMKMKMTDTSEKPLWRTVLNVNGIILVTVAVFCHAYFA
Protocol: as §1, §2, §3, §4, §5, §6

[3] = tested on: Streptozotocin diabetic model rats; assay: Oral glucose tolerance test in streptozotocin diabetic model rats; format: in vivo; settings: Rattus norvegicus; STZ diabetic SD/IGS rats; 1 mg/kg oral, glucose 2 g/kg oral 5 minutes later; decrease rate of ΔAUC 0-1 h vs control group; read-out: STZ rats-OGTT(2 g/kg) % inhibition ΔAUC0-1 h(mgh/dL) @1 mg/kg
Protocol: 7-week-old SD/IGS rats (from CHARLES RIVER LABORATORIES JAPAN, INC., male) were fasted for about 16 hours. Then to these rats under etherization were administered 50 mg/kg of streptozotocin (STZ) via the tail vein to prepare diabetic model rats. Similarly, to rats under etherization were administered 1 mL/kg physiological saline containing 1.25 mmol/L of citric acid via tail veins to prepare normal control rats. One week (8 weeks old) after administration of STZ or 1.25 mmol/L citric acid physiological saline, the rats were subjected to oral glucose tolerance test.
After the rats were fasted for about 16 hours, the medicament (1 mg/kg) suspended in a 0.5% carboxymethyl cellulose (CMC) aqueous solution was orally administered to a medicament treated group, and only a 0.5% aqueous solution of CMC was orally administered to a control group. At 5 minutes after the administration, a glucose solution (2 g/kg) was orally administered to each rat, and blood was collected at 5 points in total: before the administration (0 time), after 0.25, 0.5, 1 and 2 hours after the oral administration.
The blood was collected from the orbital sinus venosus of each rat under etherization with a heparin-coated blood collection tube and centrifuged, and then blood plasma was separated. The concentration of glucose in the blood plasma was determined with Glucose CII Test Wako from Wako Pure Chemical Industries, Ltd. As for the intensity of inhibitory effect on elevation of blood glucose level, area under the blood glucose level curve (AUC) was calculated by the trapezoidal rule based on the blood glucose levels of the medicament treated group from 0 time to 1 hour time. And a basal value is subtracted from AUC to describe the intensity as area under the blood glucose level increment (ΔAUC) and describe the intensity as a decrease rate from the ΔAUC of the control group.

IC50 [1] [nM] | IC50 [2] [nM] | SGLT2 % inhibition at 100 nM [1] [%] | SGLT1 % inhibition at 100 nM [2] [%] | Compound | inhibition in vivo at 1 mg/kg [3] [%]
17 | 11 |  |  | Cc1cc(O)c([C@@H]2O[C@H](CO)[C@@H](O)[C@H](O)[C@H]2O)cc1Cc1ccc(CCCC(=O)NC(C)(C)CO)cc1 [Compound 1, (1S)-1,5-anhydro-1-[2-hydroxy-5-[4-[4-[(2-hydroxy-1,1-dimethylethyl)amino]-4-oxobutyl]benzyl]-4-methylphenyl]-D-glucitol] | 41.7
18 | 32 |  |  | Cc1cc(O)c([C@@H]2O[C@H](CO)[C@@H](O)[C@H](O)[C@H]2O)cc1Cc1ccc(CCCC(=O)NC(C)(CO)CO)cc1 [Compound 2, (1S)-1,5-anhydro-1-[2-hydroxy-5-[4-[4-[[2-hydroxy-1-(hydroxymethyl)-1-methylethyl]amino]-4-oxobutyl]benzyl]-4-methylphenyl]-D-glucitol] | 51.6
65 | 35 |  |  | Cc1cc(O)c([C@@H]2O[C@H](CO)[C@@H](O)[C@H](O)[C@H]2O)cc1Cc1ccc(CCCC(=O)NC(CO)(CO)CO)cc1 [Compound 3, (1S)-1,5-anhydro-1-[2-hydroxy-5-[4-[4-[[2-hydroxy-1,1-bis(hydroxymethyl)ethyl]amino]-4-oxobutyl]benzyl]-4-methylphenyl]-D-glucitol] | 63.9
31 | 51 |  |  | Cc1cc(O)c([C@@H]2O[C@H](CO)[C@@H](O)[C@H](O)[C@H]2O)cc1Cc1ccc(CCCC(=O)NC(C)(C)C(N)=O)cc1 [Compound 4, (1S)-1-[5-[4-[4-[(2-amino-1,1-dimethyl-2-oxoethyl)amino]-4-oxobutyl]benzyl]-2-hydroxy-4-methylphenyl]-1,5-anhydro-D-glucitol] | 51
29 | 65 |  |  | Cc1cc(O)c([C@@H]2O[C@H](CO)[C@@H](O)[C@H](O)[C@H]2O)cc1Cc1ccc(CCCNC(=O)NC(C)(C)CO)cc1 [Compound 8, (1S)-1,5-anhydro-1-[5-[4-[3-[[(2-hydroxy-1,1-dimethylethyl)aminocarbonyl]amino]propyl]benzyl]-2-hydroxy-4-methylphenyl]-D-glucitol] | 45.1
29 | 175 |  |  | Cc1cc(O)c([C@@H]2O[C@H](CO)[C@@H](O)[C@H](O)[C@H]2O)cc1Cc1ccc(CCCNC(=O)NC(CO)(CO)CO)cc1 [Compound 9, (1S)-1,5-anhydro-1-[5-[4-[3-[[[2-hydroxy-1,1-bis(hydroxymethyl)ethyl]aminocarbonyl]amino]propyl]benzyl]-2-hydroxy-4-methylphenyl]-D-glucitol] | 50.1
 |  | 76 | 62 | Cc1cc(O)c([C@@H]2O[C@H](CO)[C@@H](O)[C@H](O)[C@H]2O)cc1Cc1ccc(CCNC(=O)NCC2OCCO2)cc1 [Compound 64] | 
 |  | 76 | 62 | Cc1cc(O)c([C@@H]2O[C@H](CO)[C@@H](O)[C@H](O)[C@H]2O)cc1Cc1ccc(CCNC(=O)NCC2CCCO2)cc1 (stereo partly drawn) [Compound 65] | 
 |  | 83 | 62 | Cc1cc(O)c([C@@H]2O[C@H](CO)[C@@H](O)[C@H](O)[C@H]2O)cc1Cc1ccc(CCNC(=O)NCC(O)COc2ccccc2)cc1 (stereo partly drawn) [Compound 66] | 
 |  | 82 | 61 | Cc1cc(O)c([C@@H]2O[C@H](CO)[C@@H](O)[C@H](O)[C@H]2O)cc1Cc1ccc(CCNC(=O)NCCN2CCCCC2)cc1 [Compound 67] | 
 |  | 83 | 60 | Cc1cc(O)c([C@@H]2O[C@H](CO)[C@@H](O)[C@H](O)[C@H]2O)cc1Cc1ccc(CCNC(=O)NCc2ccccc2)cc1 [Compound 68] | 
 |  | 86 | 59 | Cc1cc(O)c([C@@H]2O[C@H](CO)[C@@H](O)[C@H](O)[C@H]2O)cc1Cc1ccc(CCNC(=O)NCCc2ccccc2)cc1 [Compound 71] | 
 |  | 87 | 78 | Cc1cc(O)c([C@@H]2O[C@H](CO)[C@@H](O)[C@H](O)[C@H]2O)cc1Cc1ccc(CCNC(=O)NC2C3CC4CC(C3)CC2C4)cc1 (stereo partly drawn) [Compound 123] | 
 |  | 90 | 68 | Cc1cc(O)c([C@@H]2O[C@H](CO)[C@@H](O)[C@H](O)[C@H]2O)cc1Cc1ccc(CCNC(=O)NC2CCCC2)cc1 [Compound 125] | 
 |  | 84 | 65 | Cc1cc(O)c([C@@H]2O[C@H](CO)[C@@H](O)[C@H](O)[C@H]2O)cc1Cc1ccc(CCNC(=O)NC2Cc3ccccc3C2)cc1 [Compound 138] | 
